Laboratory results as given in patent US5521156A, “Cyclic neurokinin A antagonists” (priority 1994, dated 1996).
Where a SMILES comes first, the peptide text is derived from it. [ ]: non-standard residue; d: D form.

Target: T1, bovine stomach NK-2 receptor (Bos taurus, UniProt P05363)
T1 construct: expressed in transfected cells; host or cells: SKLKB82#3 (mouse fibroblast cell line)
T1 sequence (P05363 1-384): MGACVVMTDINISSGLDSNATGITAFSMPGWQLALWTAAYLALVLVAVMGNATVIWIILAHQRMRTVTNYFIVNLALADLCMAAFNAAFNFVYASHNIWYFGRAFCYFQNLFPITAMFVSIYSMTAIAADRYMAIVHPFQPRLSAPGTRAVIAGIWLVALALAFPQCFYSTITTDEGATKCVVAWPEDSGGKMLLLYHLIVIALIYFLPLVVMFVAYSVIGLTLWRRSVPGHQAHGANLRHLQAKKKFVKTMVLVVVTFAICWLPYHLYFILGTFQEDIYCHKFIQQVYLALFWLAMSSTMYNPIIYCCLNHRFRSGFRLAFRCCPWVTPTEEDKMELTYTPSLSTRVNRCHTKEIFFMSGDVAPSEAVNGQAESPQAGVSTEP
Experiment: Antagonism of NK-2 receptor mediated phosphatidylinositol turnover in SKLKB82#3 cells
Assay type: cell-based
Conditions: Schild regression vs NKA, 95% confidence limits 8.22 to 8.69, read-out: pA2 (converted)
Procedure: Cultured SKLKB82#3 (bovine stomach NK-2 receptor transfected into mouse fibroblast cell line) cells were seeded onto 24-well plates at 125,000 cells/well, two-three days prior to assay. Cells were loaded with 0.5 ml of 0.2 μM myo[2-^3 H(N)] inositol (American Radiolabeled Chemicals Inc., specific activity, 20 Ci/mmol) 20-24 hrs prior to assay. Cultured cells were maintained at 37° C. in a 5% CO2 environment. On the day of the assay, media was aspirated and the cells incubated in D-MEM/F-12 media containing 40 μg/ml bacitracin, 4 μg/ml each of leupeptin and chymostatin, 0.1% bovine serum albumin and 1 μM thiorphan and 10 mM LiCl. After 15 min., cyclo[Tyr-trp-Leu-Arg-Trp-Gly] SEQ. ID 6 (concentration range 0.3 nM -10 μM) was added to the cells in a volume of 0.1 ml. […] The third elution was collected and counted in 9 ml scintillation fluid. A 50 μl aliquot of the organic (bottom) phase was removed, dried in a scintillation vial and counted in 7 ml scintillation fluid.
The ratio of DPM in the aqueous phase aliquot (total inositol phosphates) to the DPM in the 50 μl organic phase aliquot (total [^3 H]-inositol incorporated) was calculated for each sample. Data are expressed as a percent of agonist-induced accumulation of [3H]-inositol phosphates over basal leTels. […]

## CC(C)C[C@@H]1NC(=O)[C@@H](Cc2c[nH]c3ccccc23)NC(=O)[C@H](Cc2ccc(O)cc2)NC(=O)CNC(=O)[C@H](Cc2c[nH]c3ccccc23)NC(=O)[C@H](CCCNC(=N)N)NC1=O [cyclo[Tyr--trp--Leu--Arg--Trp--Gly], cyclo[Tyr-trp-Leu-Arg-Trp-Gly]] (cyclo(GY[dW]LRW))
  Kb: 3.55 nM
